Laboratory results as given in patent US20120190752A1, “EXO-S-MECAMYLAMINE METHOD, USE, AND COMPOUND FOR TREATMENT” (Targacept Inc., priority 2009, published 2012).

Tested on: subjects with major depressive disorder (MDD) who were inadequate responders to citalopram
Test: HAMD-17 total score, Phase 2b trial of TC-5214 as add-on to citalopram
Type: in vivo, human
Details: for HAMD-17 total score, observed Mean / HAMD-17 total score, observed Median / HAMD-17 Remission (Score ≦7): Subjects with Remission (number) / HAMD-17 Remission (Score ≦7): Subjects with Remission (percentage) / HAMD-17 Remission (Score ≦7): Subjects without Remission (number) / HAMD-17 Remission (Score ≦7): Subjects without Remission (percentage) / HAMD-17 Remission (Score ≦10): Subjects with Remission (number) / HAMD-17 Remission (Score ≦10): Subjects with Remission (percentage) / HAMD-17 Remission (Score ≦10): Subjects without Remission (number) / HAMD-17 Remission (Score ≦10): Subjects without Remission (percentage) / HAMD-17 reduction from baseline ≧50%: Subjects with Response (number) / HAMD-17 reduction from baseline ≧50%: Subjects with Response (percentage) / HAMD-17 reduction from baseline ≧50%: Subjects without Response (number) / HAMD-17 reduction from baseline ≧50%: Subjects without Response (percentage) / HAMD-17 Adjusted Mean change / HAMD-17 Mean Difference between TC-5214 and Placebo: PP; for primary outcome: mean change between TC-5214 and placebo from baseline on HAM-D (HAMD-17 total score): intent to treat, Week 8 to Week 16 LOCF, result in words
Description: The Hamilton Rating Scale for Depression (HRSD), also known as the Hamilton Depression Rating Scale (HDRS) or abbreviated to HAM-D or HAMD, is a multiple choice questionnaire that clinicians may use to rate the severity of a patient's major depression (Hamilton 1967). The questionnaire rates the severity of symptoms observed in depression such as low mood, insomnia, agitation, anxiety and weight loss. The questionnaire is presently one of the most commonly used scales for rating depression in medical research. The clinician chooses the possible responses to each question by interviewing the patient and by observing the patient's symptoms. Each question has multiple possible responses which increase in severity. Although Hamilton's original scale had 17 questions, others later developed HRSD scales with different numbers of questions, the greatest of which is 29 (HRSD-29). Clinicians can use the HRSD in place of, or in conjunction with, the Montgomery-Åsberg Depression Rating Scale (MADRS), the Beck Depression Inventory (BDI), the Zung Self-Rating Depression Scale, the Wechsler Depression Rating Scale, the […] Depression Rating Scale, the Inventory of Depressive Symptomatology (IDS), the Quick Inventory of Depressive Symptomatology (QIDS), and other questionnaires. […] The results on all of the trial's secondary efficacy measures, including assessments of depression, irritability, disability, cognition, severity of illness and global improvement, were also statistically significant in favor of TC-5214 on an intent to treat basis. The Phase 2b trial of TC-5214 as an augmentation treatment for MDD was a two-phase trial conducted at 20 sites in India and three sites in the United States. In the first phase, 579 subjects with MDD received first-line treatment with citalopram hydrobromide for eight weeks, 20 mg daily for the first four weeks and 40 mg daily for the next four weeks. Citalopram, an approved treatment for MDD marketed in the United States as […]®, is from the drug class known as selective serotonin reuptake inhibitors. At the end of the eight weeks, subjects whose MADRS score had improved less than 50 percent and whose CGI-SI score was no lower than 4 were considered partial or non responders and randomized into the double blind second phase of the trial. In the double blind second phase, subjects continued their citalopram treatment and also received either add-on TC-5214 or add-on placebo for an additional eight weeks. The daily dosage of TC-5214 was initially 2 mg and could be increased at the discretion of the investigator to 4 mg and to 8 mg based on tolerability and therapeutic response. The primary outcome measure for the trial was mean change between TC-5214 and placebo from double blind baseline as measured by HAM-D at week 16. The intent to treat dataset included 265 subjects in the second phase. In more detail, a multi-center double-blind, randomized, placebo-controlled, parallel group, flexible dose titration study of TC-5214 as adjunctive therapy in subjects with major depressive disorder (MDD) who were inadequate responders to citalopram was conducted in centers in the US and India. The study consisted of a screening period, baseline/washout period, open-label phase, double-blind phase, and a follow-up visit. Subject participation in the study could continue for up to 16 weeks of treatment. Following a washout period of up to 28 days for other antidepressants, subjects with MDD and a MADRS total score >/=28 and a Clinical Global Impression-Severity (CGI-S) score >/=4 were enrolled on Day 1 into an open-label citalopram-only phase of the study. This phase lasted 8 weeks, with citalopram (CIT) dose increased from a once-daily dose of 20 mg (Day 1 through Week 4) to 40 mg (Week 4 through Week 8). A total of 579 subjects entered the open-label citalopram phase. […]

[1] = Double Blind Week 8 (Baseline), before TC-5214
[2] = Double Blind Week 16 LOCF (change from Week 8)
[3] = Double Blind Week 18 (Follow-up)
[4] = Double Blind Week 18 LOCF (Follow-up)
[5] = Double Blind Week 18 LOCF (Follow-up), change from Week 16

SMILES: CNC1(C)C2CCC(C2)C1(C)C (stereo in doubt) [TC-5214, (S)—N,2,3,3-tetramethylnorbornan-2-amine]
- HAMD-17 Adj. Mean change (ITT, change from Week 8 (double-blind baseline) to Week 16 LOCF, add-on to citalopram): −13.75
- onset of separation from placebo, remission rates HAMD≦7 (FIG. 1) (ITT, week of double-blind treatment): ≤ 2 week
- HAMD-17 total score, observed Mean [1]: 23.7
- HAMD-17 total score, observed Median [1]: 24.0
- HAMD-17 Remission (Score ≦7): Subjects with Remission (number) (Double Blind Week 9): 1
- HAMD-17 Remission (Score ≦7): Subjects with Remission (percentage) (Double Blind Week 9): (1%)
- HAMD-17 Remission (Score ≦7): Subjects without Remission (number) (Double Blind Week 9): 112
- HAMD-17 Remission (Score ≦7): Subjects without Remission (percentage) (Double Blind Week 9): (99%)
- HAMD-17 Remission (Score ≦10): Subjects with Remission (number) (Double Blind Week 9): 3
- HAMD-17 Remission (Score ≦10): Subjects with Remission (percentage) (Double Blind Week 9): (3%)
- HAMD-17 Remission (Score ≦10): Subjects without Remission (number) (Double Blind Week 9): 110
- HAMD-17 Remission (Score ≦10): Subjects without Remission (percentage) (Double Blind Week 9): (97%)
- HAMD-17 reduction from baseline ≧50%: Subjects with Response (number) (Double Blind Week 9): 3
- HAMD-17 reduction from baseline ≧50%: Subjects with Response (percentage) (Double Blind Week 9): (3%)
- HAMD-17 reduction from baseline ≧50%: Subjects without Response (number) (Double Blind Week 9): 110
- HAMD-17 reduction from baseline ≧50%: Subjects without Response (percentage) (Double Blind Week 9): (97%)
- HAMD-17 Remission (Score ≦7): Subjects with Remission (number) (Double Blind Week 10): 4
- HAMD-17 Remission (Score ≦7): Subjects with Remission (percentage) (Double Blind Week 10): (4%)
- HAMD-17 Remission (Score ≦7): Subjects without Remission (number) (Double Blind Week 10): 109
- HAMD-17 Remission (Score ≦7): Subjects without Remission (percentage) (Double Blind Week 10): (96%)
- HAMD-17 Remission (Score ≦10): Subjects with Remission (number) (Double Blind Week 10): 16
- HAMD-17 Remission (Score ≦10): Subjects with Remission (percentage) (Double Blind Week 10): (14%)
- HAMD-17 Remission (Score ≦10): Subjects without Remission (number) (Double Blind Week 10): 97
- HAMD-17 Remission (Score ≦10): Subjects without Remission (percentage) (Double Blind Week 10): (86%)
- HAMD-17 reduction from baseline ≧50%: Subjects with Response (number) (Double Blind Week 10): 20
- HAMD-17 reduction from baseline ≧50%: Subjects with Response (percentage) (Double Blind Week 10): (18%)
- HAMD-17 reduction from baseline ≧50%: Subjects without Response (number) (Double Blind Week 10): 93
- HAMD-17 reduction from baseline ≧50%: Subjects without Response (percentage) (Double Blind Week 10): (82%)
- HAMD-17 Remission (Score ≦7): Subjects with Remission (number) (Double Blind Week 12): 16
- HAMD-17 Remission (Score ≦7): Subjects with Remission (percentage) (Double Blind Week 12): (14%)
- HAMD-17 Remission (Score ≦7): Subjects without Remission (number) (Double Blind Week 12): 97
- HAMD-17 Remission (Score ≦7): Subjects without Remission (percentage) (Double Blind Week 12): (86%)
- HAMD-17 Remission (Score ≦10): Subjects with Remission (number) (Double Blind Week 12): 36
- HAMD-17 Remission (Score ≦10): Subjects with Remission (percentage) (Double Blind Week 12): (32%)
- HAMD-17 Remission (Score ≦10): Subjects without Remission (number) (Double Blind Week 12): 77
- HAMD-17 Remission (Score ≦10): Subjects without Remission (percentage) (Double Blind Week 12): (68%)
- HAMD-17 reduction from baseline ≧50%: Subjects with Response (number) (Double Blind Week 12): 40
- HAMD-17 reduction from baseline ≧50%: Subjects with Response (percentage) (Double Blind Week 12): (35%)
- HAMD-17 reduction from baseline ≧50%: Subjects without Response (number) (Double Blind Week 12): 73
- HAMD-17 reduction from baseline ≧50%: Subjects without Response (percentage) (Double Blind Week 12): (65%)
- HAMD-17 Remission (Score ≦7): Subjects with Remission (number) (Double Blind Week 14): 35
- HAMD-17 Remission (Score ≦7): Subjects with Remission (percentage) (Double Blind Week 14): (31%)
- HAMD-17 Remission (Score ≦7): Subjects without Remission (number) (Double Blind Week 14): 78
- HAMD-17 Remission (Score ≦7): Subjects without Remission (percentage) (Double Blind Week 14): (69%)
- HAMD-17 Remission (Score ≦10): Subjects with Remission (number) (Double Blind Week 14): 53
- HAMD-17 Remission (Score ≦10): Subjects with Remission (percentage) (Double Blind Week 14): (47%)
- HAMD-17 Remission (Score ≦10): Subjects without Remission (number) (Double Blind Week 14): 60
- HAMD-17 Remission (Score ≦10): Subjects without Remission (percentage) (Double Blind Week 14): (53%)
- HAMD-17 reduction from baseline ≧50%: Subjects with Response (number) (Double Blind Week 14): 67
- HAMD-17 reduction from baseline ≧50%: Subjects with Response (percentage) (Double Blind Week 14): (59%)
- HAMD-17 reduction from baseline ≧50%: Subjects without Response (number) (Double Blind Week 14): 46
- HAMD-17 reduction from baseline ≧50%: Subjects without Response (percentage) (Double Blind Week 14): (41%)
- HAMD-17 Remission (Score ≦7): Subjects with Remission (number) (Double Blind Week 16): 50
- HAMD-17 Remission (Score ≦7): Subjects with Remission (percentage) (Double Blind Week 16): (44%)
- HAMD-17 Remission (Score ≦7): Subjects without Remission (number) (Double Blind Week 16): 63
- HAMD-17 Remission (Score ≦7): Subjects without Remission (percentage) (Double Blind Week 16): (56%)
- HAMD-17 Remission (Score ≦10): Subjects with Remission (number) (Double Blind Week 16): 75
- HAMD-17 Remission (Score ≦10): Subjects with Remission (percentage) (Double Blind Week 16): (66%)
- HAMD-17 Remission (Score ≦10): Subjects without Remission (number) (Double Blind Week 16): 38
- HAMD-17 Remission (Score ≦10): Subjects without Remission (percentage) (Double Blind Week 16): (34%)
- HAMD-17 reduction from baseline ≧50%: Subjects with Response (number) (Double Blind Week 16): 84
- HAMD-17 reduction from baseline ≧50%: Subjects with Response (percentage) (Double Blind Week 16): (74%)
- HAMD-17 reduction from baseline ≧50%: Subjects without Response (number) (Double Blind Week 16): 29
- HAMD-17 reduction from baseline ≧50%: Subjects without Response (percentage) (Double Blind Week 16): (26%)
- HAMD-17 total score, observed Mean (Double Blind Week 16 LOCF): 9.1
- HAMD-17 total score, observed Median (Double Blind Week 16 LOCF): 8.0
- HAMD-17 Adjusted Mean change [2]: −14.64
- HAMD-17 Mean Difference between TC-5214 and Placebo [2]: 6.10
- HAMD-17 Remission (Score ≦7): Subjects with Remission (number) [3]: 58
- HAMD-17 Remission (Score ≦7): Subjects with Remission (percentage) [3]: (51%)
- HAMD-17 Remission (Score ≦7): Subjects without Remission (number) [3]: 55
- HAMD-17 Remission (Score ≦7): Subjects without Remission (percentage) [3]: (49%)
- HAMD-17 Remission (Score ≦10): Subjects with Remission (number) [3]: 77
- HAMD-17 Remission (Score ≦10): Subjects with Remission (percentage) [3]: (68%)
- HAMD-17 Remission (Score ≦10): Subjects without Remission (number) [3]: 36
- HAMD-17 Remission (Score ≦10): Subjects without Remission (percentage) [3]: (32%)
- HAMD-17 reduction from baseline ≧50%: Subjects with Response (number) [3]: 83
- HAMD-17 reduction from baseline ≧50%: Subjects with Response (percentage) [3]: (73%)
- HAMD-17 reduction from baseline ≧50%: Subjects without Response (number) [3]: 30
- HAMD-17 reduction from baseline ≧50%: Subjects without Response (percentage) [3]: (27%)
- HAMD-17 total score, observed Mean [4]: 8.6
- HAMD-17 total score, observed Median [4]: 7.0
- HAMD-17 Adjusted Mean change [5]: −0.83
- HAMD-17 Mean Difference between TC-5214 and Placebo [5]: −0.01
- primary outcome: mean change between TC-5214 and placebo from baseline on HAM-D (HAMD-17 total score): highly statistically significant in favor of TC-5214
- primary outcome: mean change between TC-5214 and placebo from baseline on HAM-D (HAMD-17 total score) (listed as TC-5214-23): statistically significant favoring TC-5214-23
